Results published in the NIST ThermoML archive (doi:10.1021/acs.jced.7b00242).
Numbers after ± are expanded uncertainties.

What was measured:
[1] = refractive index (Na D-line) (dimensionless)
[2] = 298.15 K; 101 kPa; Liquid; Vibrating tube method
[3] = 303.15 K; 101 kPa; Liquid; Vibrating tube method
[4] = 303.15 K; Liquid; Ring tensiometer
[5] = 313.15 K; 101 kPa; Liquid; Vibrating tube method
[6] = 313.15 K; Liquid; Ring tensiometer
[7] = 323.15 K; 101 kPa; Liquid; Vibrating tube method
[8] = 323.15 K; Liquid; Ring tensiometer
[9] = 333.15 K; 101 kPa; Liquid; Vibrating tube method
[10] = 333.15 K; Liquid; Ring tensiometer
[11] = 343.15 K; 101 kPa; Liquid; Vibrating tube method
[12] = 343.15 K; Liquid; Ring tensiometer
[13] = 353.15 K; 101 kPa; Liquid; Vibrating tube method
[14] = 353.15 K; Liquid; Ring tensiometer
[15] = 363.15 K; 101 kPa; Liquid; Vibrating tube method
[16] = 363.15 K; Liquid; Ring tensiometer
[17] = 293.15 K; 101 kPa; Liquid; Standard Abbe refractometry
[18] = 298.15 K; 101 kPa; Liquid; Standard Abbe refractometry
[19] = 303.15 K; 101 kPa; Liquid; Standard Abbe refractometry
[20] = 313.15 K; 101 kPa; Liquid; Standard Abbe refractometry
[21] = 323.15 K; 101 kPa; Liquid; Standard Abbe refractometry
[22] = 333.15 K; 101 kPa; Liquid; Standard Abbe refractometry
[23] = 343.15 K; 101 kPa; Liquid; Standard Abbe refractometry
[24] = 353.15 K; 101 kPa; Liquid; Standard Abbe refractometry
[25] = 363.15 K; 101 kPa; Liquid; Standard Abbe refractometry
[26] = 293.15 K; 101 kPa; Liquid; Vibrating tube method
[27] = 298.15 K; 101 kPa; Liquid; Concentric cylinders viscometry
[28] = 298.15 K; Liquid; Ring tensiometer
[29] = 303.15 K; 101 kPa; Liquid; Concentric cylinders viscometry
[30] = 313.15 K; 101 kPa; Liquid; Concentric cylinders viscometry
[31] = 323.15 K; 101 kPa; Liquid; Concentric cylinders viscometry
[32] = 333.15 K; 101 kPa; Liquid; Concentric cylinders viscometry
[33] = 343.15 K; 101 kPa; Liquid; Concentric cylinders viscometry
[34] = 353.15 K; 101 kPa; Liquid; Concentric cylinders viscometry
[35] = 363.15 K; 101 kPa; Liquid; Concentric cylinders viscometry

Structure (SMILES) | mass density [2] | mass density [3] | surface tension liquid-gas [4] | mass density [5] | surface tension liquid-gas [6] | mass density [7] | surface tension liquid-gas [8] | mass density [9] | surface tension liquid-gas [10] | mass density [11] | surface tension liquid-gas [12] | mass density [13] | surface tension liquid-gas [14] | mass density [15] | surface tension liquid-gas [16] | Normal melting temperature (Crystal; DTA) | viscosity [30] | viscosity [31] | viscosity [32] | viscosity [33] | also measured
CCCCCCCCCCn1cc[n+](C)c1.[Cl-] [1-decyl-3-methylimidazolium chloride] | 984 ± 20 kg/m3 | 979.7 ± 20 kg/m3 | 34 ± 0.9 mN/m | 974.4 ± 20 kg/m3 | 30.2 ± 0.9 mN/m | 968.1 ± 20 kg/m3 | 28.4 ± 0.9 mN/m | 962.4 ± 20 kg/m3 | 27.8 ± 0.9 mN/m | 956.4 ± 20 kg/m3 | 27 ± 0.9 mN/m | 950.7 ± 20 kg/m3 | 26.2 ± 0.9 mN/m | 943.8 ± 20 kg/m3 | 25.5 ± 0.9 mN/m | 28.96 ± 1.1 °C |  |  |  |  | refractive index ([1]; 293.15 K; 100 kPa; Liquid; Standard Abbe refractometry): 1.5002 ± 0.0048; refractive index ([1]; 298.15 K; 100 kPa; Liquid; Standard Abbe refractometry): 1.4988 ± 0.0054; refractive index ([1]; 303.15 K; 100 kPa; Liquid; Standard Abbe refractometry): 1.4972 ± 0.0058; refractive index ([1]; 313.15 K; 100 kPa; Liquid; Standard Abbe refractometry): 1.4937 ± 0.0064; refractive index ([1]; 323.15 K; 100 kPa; Liquid; Standard Abbe refractometry): 1.4897 ± 0.0064; refractive index ([1]; 333.15 K; 100 kPa; Liquid; Standard Abbe refractometry): 1.4864 ± 0.0068; refractive index ([1]; 343.15 K; 100 kPa; Liquid; Standard Abbe refractometry): 1.4834 ± 0.0074; refractive index ([1]; 353.15 K; 100 kPa; Liquid; Standard Abbe refractometry): 1.4806 ± 0.0078; refractive index ([1]; 363.15 K; 100 kPa; Liquid; Standard Abbe refractometry): 1.4788 ± 0.009; viscosity (313.15 K; 100 kPa; Liquid; Concentric cylinders viscometry): 3716 ± 630 mPa·s; viscosity (323.15 K; 100 kPa; Liquid; Concentric cylinders viscometry): 1613 ± 270 mPa·s; viscosity (333.15 K; 100 kPa; Liquid; Concentric cylinders viscometry): 778.9 ± 130 mPa·s; viscosity (343.15 K; 100 kPa; Liquid; Concentric cylinders viscometry): 411.2 ± 67 mPa·s; viscosity (353.15 K; 100 kPa; Liquid; Concentric cylinders viscometry): 233.7 ± 38 mPa·s; viscosity (363.15 K; 100 kPa; Liquid; Concentric cylinders viscometry): 141.7 ± 23 mPa·s
CCCCCCCCCCn1cc[n+](C)c1.O=S(=O)([N-]S(=O)(=O)C(F)(F)F)C(F)(F)F | 1278.4 ± 20 kg/m3 | 1274.2 ± 20 kg/m3 | 29.2 ± 0.9 mN/m | 1265.3 ± 20 kg/m3 | 28.3 ± 0.9 mN/m | 1256.3 ± 20 kg/m3 | 27.5 ± 0.9 mN/m | 1247.5 ± 20 kg/m3 | 26.9 ± 0.9 mN/m | 1239.4 ± 20 kg/m3 | 26.3 ± 0.9 mN/m | 1230.6 ± 20 kg/m3 | 25.7 ± 0.9 mN/m | 1222.3 ± 20 kg/m3 | 25.2 ± 0.9 mN/m | 3.04 ± 1.1 °C | 50.86 ± 8.1 mPa·s | 34.51 ± 5.5 mPa·s | 24.5 ± 3.9 mPa·s | 18.08 ± 2.9 mPa·s | refractive index [1, 17]: 1.4366 ± 0.004; refractive index [1, 18]: 1.4351 ± 0.004; refractive index [1, 19]: 1.4336 ± 0.004; refractive index [1, 20]: 1.4306 ± 0.004; refractive index [1, 21]: 1.4278 ± 0.004; refractive index [1, 22]: 1.425 ± 0.004; refractive index [1, 23]: 1.4222 ± 0.004; refractive index [1, 24]: 1.4194 ± 0.004; refractive index [1, 25]: 1.4166 ± 0.004; mass density (273.15 K; 101 kPa; Liquid; Vibrating tube method): 1292.7 ± 20 kg/m3; mass density (289.15 K; 101 kPa; Liquid; Vibrating tube method): 1287.3 ± 20 kg/m3; viscosity (293.15 K; 101 kPa; Liquid; Concentric cylinders viscometry): 139.9 ± 22 mPa·s; mass density [26]: 1282.3 ± 20 kg/m3; viscosity [27]: 101.2 ± 16 mPa·s; surface tension liquid-gas [28]: 29.8 ± 0.9 mN/m; viscosity [29]: 79.17 ± 13 mPa·s; viscosity [34]: 13.78 ± 2.2 mPa·s; viscosity [35]: 10.79 ± 1.7 mPa·s
CCCCCCCCCCCCCCn1cc[n+](C)c1.O=S(=O)([N-]S(=O)(=O)C(F)(F)F)C(F)(F)F |  | 1197.1 ± 20 kg/m3 |  | 1187.6 ± 20 kg/m3 |  | 1180 ± 20 kg/m3 |  | 1171.3 ± 20 kg/m3 |  | 1163.1 ± 20 kg/m3 |  | 1154.6 ± 20 kg/m3 |  | 1146.5 ± 20 kg/m3 |  | 34.4 ± 1.1 °C | 83.54 ± 13 mPa·s | 54.36 ± 8.7 mPa·s | 37.21 ± 6 mPa·s | 26.58 ± 4.3 mPa·s | refractive index ([1]; 303.15 K; 101 kPa; Metastable liquid; Standard Abbe refractometry): 1.4384 ± 0.004; refractive index ([1]; 313.15 K; 101 kPa; Standard Abbe refractometry; Liquid): 1.4352 ± 0.004; refractive index ([1]; 323.15 K; 101 kPa; Standard Abbe refractometry; Liquid): 1.4322 ± 0.004; refractive index ([1]; 333.15 K; 101 kPa; Standard Abbe refractometry; Liquid): 1.4292 ± 0.004; refractive index ([1]; 343.15 K; 101 kPa; Standard Abbe refractometry; Liquid): 1.4262 ± 0.004; refractive index ([1]; 353.15 K; 101 kPa; Standard Abbe refractometry; Liquid): 1.4233 ± 0.004; refractive index ([1]; 363.15 K; 101 kPa; Standard Abbe refractometry; Liquid): 1.4204 ± 0.004; surface tension liquid-gas (303.15 K; Metastable liquid; Ring tensiometer): 26.3 ± 0.9 mN/m; surface tension liquid-gas (313.15 K; Ring tensiometer; Liquid): 25.3 ± 0.9 mN/m; surface tension liquid-gas (323.15 K; Ring tensiometer; Liquid): 24.5 ± 0.9 mN/m; surface tension liquid-gas (333.15 K; Ring tensiometer; Liquid): 23.7 ± 0.9 mN/m; surface tension liquid-gas (343.15 K; Ring tensiometer; Liquid): 22.9 ± 0.9 mN/m; viscosity [34]: 19.68 ± 3.1 mPa·s; surface tension liquid-gas (353.15 K; Ring tensiometer; Liquid): 22.3 ± 0.9 mN/m; viscosity [35]: 15.04 ± 2.4 mPa·s; surface tension liquid-gas (363.15 K; Ring tensiometer; Liquid): 21.7 ± 0.9 mN/m
CCCCCCCCCCCC[n+]1ccn(C)c1.[Cl-] [1-dodecyl-3-methylimidazolium chloride] |  |  |  |  |  |  |  |  |  |  |  |  |  |  |  | 96.22 ± 1.1 °C |  |  |  |  | 
CCCCCCCCCCCCn1cc[n+](C)c1.O=S(=O)([N-]S(=O)(=O)C(F)(F)F)C(F)(F)F | 1248 ± 20 kg/m3 | 1242 ± 20 kg/m3 | 27.7 ± 0.9 mN/m | 1232.2 ± 20 kg/m3 | 26.9 ± 0.9 mN/m | 1224.1 ± 20 kg/m3 | 25.9 ± 0.9 mN/m | 1216 ± 20 kg/m3 | 24.9 ± 0.9 mN/m | 1208.1 ± 20 kg/m3 | 24.1 ± 0.9 mN/m | 1200 ± 20 kg/m3 | 23.3 ± 0.9 mN/m | 1191.8 ± 20 kg/m3 | 22.5 ± 0.9 mN/m | 22.50 ± 1.1 °C | 63.54 ± 10 mPa·s | 42.41 ± 6.8 mPa·s | 29.67 ± 4.8 mPa·s | 21.63 ± 3.5 mPa·s | refractive index [1, 17]: 1.4385 ± 0.004; refractive index [1, 18]: 1.437 ± 0.004; refractive index [1, 19]: 1.4354 ± 0.004; refractive index [1, 20]: 1.4324 ± 0.004; refractive index [1, 21]: 1.4295 ± 0.004; refractive index [1, 22]: 1.4265 ± 0.004; refractive index [1, 23]: 1.4237 ± 0.004; refractive index [1, 24]: 1.4209 ± 0.004; refractive index [1, 25]: 1.4179 ± 0.004; mass density [26]: 1253.1 ± 20 kg/m3; viscosity [27]: 130.5 ± 21 mPa·s; surface tension liquid-gas [28]: 28.1 ± 0.9 mN/m; viscosity [29]: 101.1 ± 16 mPa·s; viscosity [34]: 16.31 ± 2.6 mPa·s; viscosity [35]: 12.65 ± 2 mPa·s
